Reference: a melting point compilation (Tetko et al.)

For `O=S(=O)(Cl)c1ccc(-c2ccccn2)s1`, the melting point was 87 to 89 °C. Molecule `O=C(Nc1cc([N+](=O)[O-])ccc1C(=O)O)c1ccccc1` has a melting point of 252 °C. Molecule `COc1ccc(-n2cncn2)cc1` has a melting point of 97 °C. `Cc1nccn1-c1ccccc1C(=O)O` showed a melting point of 232 to 234 °C. Molecule `CC(CO)CO` has a melting point of -91 °C. `O=C(O)C(c1ccc(Cl)cc1)c1ccc(Cl)cc1` gave a melting point of 168 °C. `CC(=O)OC1C(c2ccc(=O)oc2)C2(C)CCC3C(CCC4(O)CC(O)CCC34C)C23OC13` (stereo not drawn) gave a melting point of 260 °C. In the case of `Cc1cc(C)c(OC(=O)C(F)(F)F)cc1OC(=O)C(F)(F)F`, the melting point is reported as 121 °C. `Nc1ncccc1Cl` gave a melting point of 61 °C. Molecule `CNC(=C[N+](=O)[O-])OC` has a melting point of 116 to 120 °C. In the case of `COc1ccc(C2Cc3ccccc3C(C)(O)O2)cc1` (stereo not drawn), the melting point is reported as 102 °C. For `CC1=Nc2ccc3ccccc3c2C1(C)C`, the melting point was 117 °C. `CC(C)(C)C1CCCCC1O` (stereo not drawn) showed a melting point of 45 °C. Work on `Cc1ccc2ocnc2c1` yielded a melting point of 43 °C. Molecule `CC(C)[C@H](O)C(=O)O` has a melting point of 65 to 68 °C. `Brc1cn[nH]c1` showed a melting point of 94.5 °C. With `Cc1nccn1-c1ccccc1CN` the melting point was 48 to 48.5 °C. In the case of `C=CC1CNC(=S)O1` (stereo not drawn), the melting point is reported as 50 °C. With `COc1cc(OC)c(Cl)cc1N` the melting point was 89 to 92 °C. Work on `NC(=O)OCC(O)COc1ccc(Cl)cc1` (stereo not drawn) yielded a melting point of 90 °C. `Cc1cccc(/N=N/c2c(N)nn3c(-c4ccccc4)cc(=O)[nH]c23)c1` gave a melting point of 296 °C. `C[Si](C)(C)Nc1ncnc2c1ncn2[Si](C)(C)C` showed a melting point of 86 °C. Molecule `O=C(c1ccccc1)C1C(=O)c2ccccc2C1=O` has a melting point of 108 to 112 °C. For `CCCCCCC(O)CC` (stereo not drawn), the melting point was 22 °C. Molecule `CC(C)Oc1ccccc1` has a melting point of -33 °C. `N#CCCn1cccc(C(F)(F)F)c1=O` showed a melting point of 88 to 90 °C. `CC(=O)OC1CC[C@]2(C)[C@H]3CC[C@]4(C)C(=O)CC[C@H]4[C@@H]3C(=O)C[C@@]2(C)C1` (stereo partly drawn) gave a melting point of 153 to 157 °C. For `Nc1ccc(Oc2ccc(N)cc2)cc1`, the melting point was 191 °C. In the case of `Cc1ccc(C)c2c1C(=O)c1ccccc1C2=O`, the melting point is reported as 140 °C. `Clc1cc(Br)ccn1` showed a melting point of 19 °C. With `Cc1ccc(C=C(Oc2ccccc2)c2nc3ccccc3s2)cc1` the melting point was 161 to 165 °C. With `COC(=O)C1(O)c2ccccc2-c2ccc(Cl)cc21` (stereo not drawn) the melting point was 155 °C. In the case of `Nc1nc(F)cc(C(F)(F)F)c1F`, the melting point is reported as 67 °C. With `Cc1nnc(SCc2ccccc2)n1N=Cc1ccc(N(C)C)cc1` the melting point was 47 to 49 °C. With `OCCC12CC3CC(CC(C3)C1)C2` the melting point was 74 °C. In the case of `Cc1ccc2c(c1)C(=O)c1cc(C)ccc1C2=O`, the melting point is reported as 163 °C. For `Cc1cc(Oc2ccc(C(N)=NO)cc2[N+](=O)[O-])cc(C)c1Cl`, the melting point was 183 to 185 °C. With `O=C(C1=NOC2C(=O)N(c3cc(Cl)ccc3Cl)C(=O)C12)c1ccc([N+](=O)[O-])cc1` (stereo not drawn) the melting point was 216 °C. `COP(=S)(OC)SCc1nc(N)nc(N)n1` gave a melting point of 165 °C. Molecule `NC(=O)C[C@H](NC(=O)OCc1ccccc1)C(=O)O` has a melting point of 160 to 165 °C. With `Cc1noc(-c2ccccc2CO)n1` the melting point was 91 to 92 °C. Work on `N#Cc1ccc(CS(=O)(=O)Cl)cc1` yielded a melting point of 99.5 to 102 °C. In the case of `NS(=O)(=O)c1cc2c(cc1Cl)NCNS2(=O)=O`, the melting point is reported as 267 °C. Work on `CCOC(=O)c1c(=S)ncn2c1[nH]c1ccccc12` yielded a melting point of 194 to 198 °C. With `N#Cc1c(-c2ccc(F)cc2)c(C#N)c(=O)n(N)c1N` the melting point was 304 °C. Molecule `O=[N+]([O-])c1ccc(N2CCCNCC2)nc1` has a melting point of 111 to 112 °C. Molecule `COc1ccc(C(O)C(=O)O)cc1O` (racemic) has a melting point of 125 to 132 °C. With `CCSC(SCC)C(OC(C)=O)C(OC(C)=O)C(OC(C)=O)C(COC(C)=O)OC(C)=O` (stereo not drawn) the melting point was 111 to 112 °C. Molecule `O=C(O)CCOc1ccc(F)cc1` has a melting point of 84 to 86 °C. Molecule `Cn1c(/C(C#N)=C/c2c(Cl)cccc2Cl)nc2ccccc21` has a melting point of 185 °C. `N#Cc1c(F)cccc1-n1cccc1` showed a melting point of 67 to 69 °C. Molecule `Nc1c(Br)cc(Br)cc1C(=O)O` has a melting point of 235 to 236 °C. `CCCCCCCCCC(=O)OCC` gave a melting point of -20 °C. With `COc1cc(O)ccc1C=O` the melting point was 158 °C. Work on `COc1cc(C(=O)Nc2ccc3nn(C4CCCCC4)nc3c2)cc(OC)c1OC` yielded a melting point of 130 °C. `O=C(c1cccs1)c1nn2c(nc(=O)c3ccccc32)s1` showed a melting point of 236 °C. Molecule `CC1CCC2C1C1C(CCC2(C)O)C1(C)C` (stereo not drawn) has a melting point of 105 °C. For `CN1CCc2c(c3ccccc3n2Cc2ccccc2)C1`, the melting point was 95 °C. `O=C(Cl)c1cccc2c1OCC2` gave a melting point of 55 to 61 °C. With `O=Cc1ccc(N2CCOCC2)nc1` the melting point was 88 to 89 °C. With `O=C(Cl)c1ccc(-c2ccco2)s1` the melting point was 83 °C. Molecule `O=[N+]([O-])c1ccc2nc(C(Cl)(Cl)Cl)[nH]c2c1` has a melting point of 210 to 212 °C. With `NC(=S)c1ccncc1` the melting point was 201 °C. Molecule `O=C1CCC(=O)N1I` has a melting point of 204 °C. `COC(=O)c1ccccc1S(=O)(=O)NC(=O)Nc1nc(C)nc(OC)n1` gave a melting point of 162 °C. For `CC1CCC2(C)CCC3(C)C(=CCC4C5(C)CCC(O)C(C)(C)C5CCC43C)C2C1C` (stereo not drawn), the melting point was 186 °C. `O=S(=O)(CF)c1ccccc1` gave a melting point of 53 °C. `COc1cncc(Br)c1` showed a melting point of 31 °C. Work on `O=[N+]([O-])c1ccc(N2CCOCC2)cc1` yielded a melting point of 152 °C. With `CC#CCCCCCCCC` the melting point was -30.1 °C. Molecule `O=C(O)C#Cc1cc(Br)cc(/C=C/C(=O)O)c1` has a melting point of 161 °C. Molecule `O=C1c2ccccc2C(=O)N1c1cn[nH]c1` has a melting point of 259 to 260 °C. For `CCCCc1c(C)nc(NCC)nc1O`, the melting point was 160 °C. `CNCCC(Oc1ccc(C(F)(F)F)cc1)c1ccccc1` (stereo not drawn) gave a melting point of 180 °C. For `O=C(c1ccc(F)cc1)c1ccc([N+](=O)[O-])cc1`, the melting point was 87 to 89 °C. `CC1CCC2(OC1)OC1CC3C4CCC5CC(O)CCC5(C)C4CCC3(C)C1C2C` (stereo not drawn) gave a melting point of 206 °C. For `COC(=O)c1ccc(C)cc1C`, the melting point was -2 °C. With `CCCCCCCCc1ccc(NC(=O)Oc2ccc(OC)cc2)cc1` the melting point was 133 °C. Molecule `CCOC(=O)C(Br)CCC(Br)C(=O)OCC` (stereo not drawn) has a melting point of 66 to 68 °C. With `CCc1ccc(Cc2ccccc2)cc1` the melting point was -24 °C. Work on `CCCCCCC(O)CO` (stereo not drawn) yielded a melting point of 36 to 38 °C. `Clc1ccc(C=NC2Nc3ccccc3N2)cc1` showed a melting point of 155 °C. With `CC(CCC(=O)O)C1CCC2C3CCC4CCCCC4(C)C3CC(O)C12C` (stereo not drawn) the melting point was 186 to 188 °C. In the case of `CC(O)C1CCC2C3CCC4CC(O)CCC4(C)C3CCC12C` (stereo not drawn), the melting point is reported as 245 °C. In the case of `COC1=C(OC)C(C(COS(=O)(=O)c2ccc(C)cc2)OS(=O)(=O)c2ccc(C)cc2)OC1=O` (stereo not drawn), the melting point is reported as 144 to 146 °C. Molecule `COC(=O)C#Cc1cccc(C#CC(=O)OC)c1` has a melting point of 93 °C. `CCCCCC(O)CCCC` (stereo not drawn) showed a melting point of 8 °C. `CCSC(=O)COc1ccc(Cl)cc1C` showed a melting point of 41.5 °C. For `CN1CCN(C(=O)CC(c2ccc(Cl)cc2)(c2ccc(Cl)cc2)c2ccc(Cl)cc2)CC1`, the melting point was 214 °C. In the case of `CC(C)C(C)(C)[Si](C)(C)Cl`, the melting point is reported as 15 °C. `CC[C@H]1CC[C@H](C(=O)O)CC1` showed a melting point of 50 °C. `CCCCCCCCCC(N)=O` showed a melting point of 108 °C. With `O=C(O)C1C2CCC(C2)C1C(=O)c1ccccc1` (stereo not drawn) the melting point was 180 to 183 °C. Molecule `Cc1cc(C(=O)N2CCN(c3ccccc3)CC2)no1` has a melting point of 101 to 103 °C. `N#C/C(=C\c1c(Cl)cccc1Cl)c1nc(-c2ccccc2)cs1` showed a melting point of 96 °C. With `O=c1c(C=Cc2nc3ccccc3[nH]2)coc2ccccc12` the melting point was 260 °C. With `Cc1cccc(C(=O)Cl)c1` the melting point was -23 °C. For `NC(=O)NCCC[C@H](N)C(=O)O`, the melting point was 236 °C. `COc1ccc(-c2nnc3n2NC(c2ccc(N(C)C)cc2)S3)cc1` (stereo not drawn) showed a melting point of 167 °C. Molecule `Nc1c(C=O)cc(C=O)c2nc(-c3ccccc3)c(-c3ccccc3)nc12` has a melting point of 289 °C. Work on `O=C1CN(C(=O)OCc2ccccc2)CCN1` yielded a melting point of 120 °C. In the case of `CC1=CC(=O)C(C)=CC1=O`, the melting point is reported as 123 to 126 °C. For `CCCCCCCCOC(=O)CCCCCCCCC(=O)OCCCCCCCC`, the melting point was -67 °C. For `O=c1nc2ccccc2nc(C(F)(F)F)c1NNc1cccc2ccccc12`, the melting point was 171 °C. `CC(=O)Cc1c[nH]c2ccccc12` gave a melting point of 116 °C. With `CSc1ccc2c(c1)N(CCC1CCCCN1C)c1ccccc1S2` (stereo not drawn) the melting point was 73 °C. `NC(=O)c1ccc(C(N)=O)cc1` showed a melting point of 332 °C. With `Cc1cc(-c2ccccc2)nnc1NCCN1CCOCC1` the melting point was 122 °C. `O=C(Oc1c(F)c(F)c(F)c(F)c1F)c1ccccc1OC1CCOCC1` gave a melting point of 62 to 64 °C. Work on `OCCN(CCO)c1nc(N2CCCCC2)c2nc(N(CCO)CCO)nc(N3CCCCC3)c2n1` yielded a melting point of 163 °C. `COC(=O)c1cc(Br)ccc1N` showed a melting point of 72 °C. `OCCCc1nc2ccccc2[nH]1` showed a melting point of 164 to 166 °C. In the case of `Nc1nccnc1C(=O)O`, the melting point is reported as 201 to 205 °C. `O=C(O)c1cnc(Cl)c(Cl)c1` gave a melting point of 163 to 168 °C. With `O=C1NC(=O)C(=Cc2cccc(C=C3C(=O)NC(=O)NC3=O)c2)C(=O)N1` the melting point was 340 °C. With `CCOC(=O)CC(=O)OCC` the melting point was -50 °C. For `C/C(CCc1oc2ccc(C)cc2c1-c1ccc(C)o1)=N/O`, the melting point was 103 to 104 °C. Molecule `Cc1nc(CO)c(C)o1` has a melting point of 73 °C. Molecule `CCCCCCCC(=O)Oc1c(Br)cc(C#N)cc1Br` has a melting point of 45.5 °C. In the case of `SCc1ccc(Br)cc1`, the melting point is reported as 27 °C. `CCOC(=O)CC(O)(CC(=O)OCC)C(=O)OCC` showed a melting point of -46 °C. For `CCCCCCCOc1ccc(C(=O)O)cc1`, the melting point was 146 °C. Work on `Cc1nnc(NS(=O)(=O)c2ccc(N)cc2)s1` yielded a melting point of 208 °C. With `COc1ccc(-c2onc(C(=O)c3cccs3)c2S(=O)(=O)c2ccccc2)cc1` the melting point was 120 °C. Molecule `Nc1c(O)cc(S(=O)(=O)O)c2ccccc12` has a melting point of 295 °C. With `O=c1[nH]oc2ccccc12` the melting point was 139 °C. `N#CCc1nc(-c2ccc([N+](=O)[O-])cc2)cs1` showed a melting point of 147 to 148 °C. For `O=C(Nc1ccc(Br)cc1Br)C(C(F)(F)F)(C(F)(F)F)C(F)(F)F`, the melting point was 228 to 230 °C.
